The results in this text go back to ChEMBL document CHEMBL1125972, “Synthesis of chemoreversible prodrugs of ARA-C” (Bioorg Med Chem Lett, 1991).

The nature of the series: Half life value was determined. It is filed as ADME.
Compound `CC(C)(NC(=O)[C@@H](N)Cc1ccc(OCc2ccccc2)cc1)C(=O)Nc1ccn(C2O[C@H](CO)[C@@H](O)[C@@H]2O)c(=O)n1` (stereo partly specified) had a half-life of 42 h.

In turn, `CC(C)(NC(=O)CO)C(=O)Nc1ccn(C2O[C@H](CO)[C@@H](O)[C@@H]2O)c(=O)n1` (stereo partly specified) showed a half-life of 360 h.

`CC(=O)[O-].CC(C)(NC(=O)CO)C(=O)Nc1ccn(C2O[C@H](CO)[C@@H](O)[C@@H]2O)c(=O)n1.[Na+]` (stereo partly specified): the half-life was 1.4 h.

`CC(=O)O.CC(C)(NC(=O)[C@@H](N)Cc1ccc(OCc2ccccc2)cc1)C(=O)Nc1ccn(C2O[C@H](CO)[C@@H](O)[C@@H]2O)c(=O)n1` (stereo partly specified) had a half-life of 31 h.

As to `CC(=O)O.CC(C)(NC(=O)CO)C(=O)Nc1ccn(C2O[C@H](CO)[C@@H](O)[C@@H]2O)c(=O)n1` (stereo partly specified), the half-life is 860 h.

Consider `CC(=O)[O-].CC(C)(NC(=O)[C@@H](N)Cc1ccc(OCc2ccccc2)cc1)C(=O)Nc1ccn(C2O[C@H](CO)[C@@H](O)[C@@H]2O)c(=O)n1.[Na+]` (stereo partly specified), for which the half-life is 0.3 h.
